Results on ten compounds are retold here after patent US4450166A, “N-(4,5-Dihydro-thiazol-2-yl)-3-quinoline-carboxamides having anxiolytic activity” (Roussel Uclaf, priority 1981, dated 1984).

Structures can show the parent of a compound that is named as a salt. Where two headings read alike, the source gives them in different places.

The conditions of data set [1]: derivative of French Pat. No. 2,340,735; cited from earlier work.
The conditions of data set [2]: derivative of French Pat. No. 2,340,735; cited from earlier work. The source holds these as a separate data set.
Data set [3] concerns the target receptors for benzodiazepines. Kind of data set: Affinity for receptors for benzodiazepines (inhibition of specific bonding of ^3 H diazepam). The data set is classed as binding. Particulars: ^3 H diazepam 10^-9 M, rat cortex, pH of 7.4. On the procedure:
The test was inspired by Mohler et al. [Science, No. 198 (1977), p. 849-851] and one part of the cortex removed from the brains of males rats weighing an average of […] per 20 parts by volume of 0.32 M of sucrose solution was homogenized. After centrifugation at 1000 g of the homogenized mixture at 0° C. for 10 minutes, the surnagent was centrifuged at 30,000 g at 4° C. for 20 minutes and the culot was suspended in 20 volumes of buffered 50 mM. Tris HCl with a pH of 7.4. The suspension was centrifuged at 30,000 g for 20 minutes at 4° C. and the new culot was suspended in 50 ml of buffered Krebs Tris HCl with a pH of 7.4. Following incubation at 0° C. for 30 minutes, 2 ml of the suspension in the presence of ^3 H diazepam at a concentration of 10^-9 M alone and with increasing concentrations of the test product to determine non-specific fixation with non-radioactive diazepam at a concentration of 10^-6 M.
The incubated suspension were filtered through a Whatman GF/C filter and the filters were washed twice at 0° C. with 5 ml of buffered krebs. Tris HCl with a pH of 7.4. The radioactivity of the filter was measured by liquid scintillation and the activity of the product was expressed in I.C.50 or the concentration which inhibits by 50% the specific bonding of ^3 H diazepam determined graphically.

A short description of data set [4]: Anxiolytic activity (electric shock test, Apelab apparatus, Boissier et al). The format is in vivo, mice. Particulars: oral; for ED (maximum): Mus musculus, 0.5 h, 30 minutes before the test, groups of 10 mice, shocks over one minute, read-out: oral dose at which the number of delivered shocks increased to the maximum; for anxiolytic activity (in words): mice. On the procedure: The Apelab apparatus and protocol used by Boissier et al [European J. Pharmacol., Vol. 4 (1968), p. 145] were used to determine the anxiolytic activity and 4 plates were connected to a stimulator (U. Sachs, Roucaire) which delivered electric shocks of 120 volts for 0.5 seconds. The test was effected on groups of 10 mice who had orally received the test compound 30 minutes before the test. Each animal was individually placed on the apparatus and after 15 seconds of free exploration, it was subjected to an electric shock each time as it passed from plate to another, a minimum of 3 seconds being observed between 2 shocks. The number of delivered shocks was determined over one minute and the obtained results were compared to those observed on control animals by the Dunnett test.

For data set [5], the system named is plasmatic corticosterone level. Kind of data set: Action against stress caused by noise by plasmatic corticosterone level. The format is in vivo. To be noted: Rattus norvegicus; oral; groups of 5 rats fasted 24 hours; noise stress one hour later; read-out: DE50 (oral dose which reduced by 50% the level of corticosterone). As for the experimental part: The test was effected on groups of 5 rats fasted for 24 hours receiving orally the test compound between 8 and 9 in the morning. One hour later, stress was applied to the animals by placing them in a cage with a noisily operated radio adjacent thereto. 30 minutes later, they received an intraperitonal prick and 10 minutes later, the animals were anesthesized with halothane. 3 ml blood samples were taken after decapitation and the seric levels of corticosterone were determined by a radio-immunological method. Counts were taken of the importance in the male rat of seric concentrations of corticosterone to determine directly without previous extraction of the hormone with 0.1 ml of the sample diluted to 1 to 100. To the test sample were added in hemolysis tubes (12×65 mm) 0.1 ml of an aqueous solution of ^3 H-- corticosterone (5000 spm) and 0.5 ml of buffered phosphate solution (0.02 M; pH of 6.9) containing 0.02% of gelatine and 0.02% of sodium nitride containing a suspension of anticorticosterone antiserum (dilution 1/300,000), sheep antiserum anti γ-globuline of rabbit (dilution of 1/50) and normal serum of rabbit treated with Dextran carbon (dilution 1/500).
The volume was adjusted to 1 ml and the mixture was incubated overnight at 4° C. The mixture was centrifuged at 3000 t/mn for 20 minutes and the surnageant was discarded. The radioactivity contained in the precipitate was measured by a counter after addition of 2 ml of scintillation liquid containing 5% of Soluene 350. The concentration of corticosterone was determined with a standard curve (0-4000 pg) established under the treatment conditions of the samples. The individual seric level of corticosterone expressed in μg/100 ml was determined as the average of 3 tests and the results were compared by the Student test to those obtained in control animals not subjected to stress. The results expressed as DE50 on the oral dose which reduced by 50% the level of corticosterone in the treated animals is reported in Table III.

A short description of another data set: Acute toxicity. The data set is classed as in vivo. To be noted: oral, mice.

For `O=C(NC1=NCCS1)c1cnc2c(C(F)(F)F)cccc2c1O`, the “analgesic activity (in words)” value in data set [1] is given as “has analgesic activity”. Besides, in data set [2], the “anxiolytic activity (in words)” value is on record as “devoid of anxiolytic activity”.
For orientation: IC50 means the concentration at which inhibition is half-maximal. A lower IC50 goes with greater potency. With `Cl.O=C(NC1=NCCS1)c1cnc2ccccc2c1O` [Example 1, N-(4,5-dihydro-thiazol-2-yl)-4-hydroxy-3-quinoline-carboxamide hydrochloride], half-maximal inhibition in data set [3] (IC50) required 0.5 nM. In data set [4], the ED (maximum) amounted to 10 mg/kg and the “anxiolytic activity (in words)” value was “good anxoilytic activity”. Also, the ED50 in data set [5] came out at 10 mg/kg. Further, the “DL0 (maximum dose which did not cause any mortality after 8 days)” value in the data set “Acute toxicity” is greater than 400 mg/kg.
On to `CCc1ccc2ncc(C(=O)NC3=NCCS3)c(O)c2c1.Cl` [Example 2, N-(4,5-dihydro-thiazol-2-yl)-6-ethyl-4-hydroxy-3-quinoline-carboxamide hydrochloride], for which the concentration for half-maximal inhibition (IC50) in data set [3] was 0.3 nM. Moreover, in data set [4], the ED (maximum) was determined as 20 mg/kg and the “anxiolytic activity (in words)” value is reported as “good anxoilytic activity”. Moreover, the ED50 in data set [5] is 15 mg/kg. Further, in “Acute toxicity”, the “DL0 (maximum dose which did not cause any mortality after 8 days)” value is reported as greater than 400 mg/kg.
As for `Cc1ccc2ncc(C(=O)NC3=NCCS3)c(O)c2c1` [Example 3, N-(4,5-dihydro-thiazol-2-yl)-6-methyl-4-hydroxy-3-quinoline-carboxamide hydrochloride], the IC50 in data set [3] came to 1.5 nM.
Turning to `CC(C)c1ccc2ncc(C(=O)NC3=NCCS3)c(O)c2c1` [Example 4, N-(4,5-dihydro-thiazol-2-yl)-6-isopropyl-4-hydroxy-3-quinoline-carboxamidehydrochloride], it took 2.2 nM to reach half-maximal inhibition in data set [3] (IC50). Besides, in data set [4], the ED (maximum) came out at 20 mg/kg and the “anxiolytic activity (in words)” value is “good anxoilytic activity”. For the same compound, the ED50 in data set [5] came out at 50 mg/kg. In “Acute toxicity”, the “DL0 (maximum dose which did not cause any mortality after 8 days)” value was greater than 1000 mg/kg.
In data set [3], `O=C(NC1=NCCS1)c1cnc2cc(Cl)ccc2c1O` [Example 5, N-(4,5-dihydro-thiazol-2-yl)-7-chloro-4-hydroxy-3-quinoline-carboxamide hydrochloride] returned an IC50 of 0.9 nM. Also, in “Acute toxicity”, the “DL0 (maximum dose which did not cause any mortality after 8 days)” value is greater than 1000 mg/kg.
In data set [3], `O=C(NC1=NCCS1)c1cnc2ccc(Cl)cc2c1O` [Example 6, N-(4,5-dihydro-thiazol-2-yl)-6-chloro-4-hydroxy-3-quinoline-carboxamide hydrochloride] returned an IC50 of 1 nM. In data set [4], the ED (maximum) was determined as 50 mg/kg and the “anxiolytic activity (in words)” value was “good anxoilytic activity”. In addition, in data set [5], the ED50 is 50 mg/kg. Further, the “DL0 (maximum dose which did not cause any mortality after 8 days)” value in the data set “Acute toxicity” is given as greater than 400 mg/kg.
For `O=C(NC1=NCCS1)c1cnc2ccc(F)cc2c1O` [Example 7, N-(4,5-dihydro-thiazol-2-yl)-6-fluoro-4-hydroxy-3-quinoline-carboxamide hydrochloride], the half-inhibitory concentration (IC50) in data set [3] is 1.3 nM.
In data set [3], `COc1ccc2c(O)c(C(=O)NC3=NCCS3)cnc2c1` [Example 8, N-(4,5-dihydro-thiazol-2-yl)-7-methoxy-4-hydroxy-3-quinoline-carboxamide hydrochloride] registered an IC50 of 1.2 nM. Besides, in data set [4], the ED (maximum) was found to be 20 mg/kg and the “anxiolytic activity (in words)” value is “good anxoilytic activity”. Further, the “DL0 (maximum dose which did not cause any mortality after 8 days)” value in the data set “Acute toxicity” is recorded as greater than 400 mg/kg.
For `Cc1nc2ccccc2c(O)c1C(=O)NC1=NCCS1` [Example 9, N-(4,5-dihydro-thiazol-2-yl)-2-methyl-4-hydroxy-3-quinoline-carboxamide hydrochloride], in data set [3], the IC50 is 2.6 nM. Also, in data set [4], the ED (maximum) turned out to be 10 mg/kg and the “anxiolytic activity (in words)” value was “good anxoilytic activity”. For the same compound, the ED50 in data set [5] was determined as 10 mg/kg. For the same compound, the “DL0 (maximum dose which did not cause any mortality after 8 days)” value in the data set “Acute toxicity” is greater than 1000 mg/kg.
